From patent US9403843B2, “Cysteine protease inhibitors and uses thereof” (The Trustees of Columbia University in the City of New York, priority 2012, dated 2016)
Read-outs that look alike come from different tables or passages of the source.

Tests used:
[1] = test system: Aβ40 and Aβ42; settings: earlier observation; cited from earlier work
[2] = test system: Cal1cat vs CathB; assay: Competition assay for Cal1 vs CathB using the biotinylated epoxide probe; format: binding, rat; settings: for blocking of active site modification by probe 27 (western blot signal): 10 min pre-treatment, then 20 min with 27
Method: Anti-biotin western blotting of Cal1cat (Lane 6) or CathB (Lane 7) after incubation with 27 show the expected immunoreactivity of the covalently modified proteins. […] Densitometric analysis, using means from triplicate immunoblots, was used to estimate the modification of each protein by 27 in the presence of inhibitors relative to control (Lane 1: ratio=1.0).
Cal1cat was used in place of the full length enzyme to avoid autocatalysis.
Cal1cat and CathB were pre-treated with inhibitors for 10 min, followed by a 20 min incubation with the biotinylated epoxide, 27, as illustrated in FIG. 4. […] A more quantitative estimate of selectivity was achieved by comparison of band intensities.
The appropriate inhibitor (5 μM) was pre-incubated in a mixture containing Cal1cat (2 μM), CathB (2 μM), TCEP (1 mM), and Ca^2+ (30 μM) for 10 min at 37° C. […] (5 μM) was then added and the mixture incubated an additional 20 min. The reaction was quenched with EDTA (10 μM) and samples were ran using 4-16% SDS PAGE gel, subsequently transferred to PVDF membrane and visualized by Pierce ECL (Enhanced chemiluminescent) western blotting substrate, intensity of each blot was calculated using densitometry software. Relative inhibition of each enzyme was calculated with respect to enzyme activity in the absence of inhibitor. Inhibitor preference to Cal1cat with respect to CathB, was calculated by dividing relative Cal1cat inhibition with relative CathB inhibition of that particular inhibitor.

[3] = molecular target: papain (Carica papaya (Papaya), UniProt P00784); assay: biochemical; format: biochemical; settings: for ki Papain: inhibition rate; for rel Papain: ki/Ki calculated relative to E-64
Excerpt: (§1) Papain is representative of a family of typically lysosomal or secreted cysteine proteases, including the human cathepsins (B, C, F, H, K, L1-2, O, S, W, Z). […] Several methods have been reported in the literature for detailed kinetic analysis of the irreversible inhibition of cysteine proteases, including Cal1. […] (SEQ ID NO: 8). Using this substrate, kinetic parameters were derived using the method of Davies and co-workers, whereby “progress curves” were initially obtained measuring product formation as a function of time and fitted to y=P∞*(1−e^(−k*x)) (FIG. 7) (Cuerrier, D. et al., J Biol Chem 2007, 282, 9600-11; herein incorporated by reference in its entirety). […] Kinetic parameters (ki, KI, ki/KI) were obtained from double reciprocal plots (FIG. 7).
(§2) Full length porcine calpain (156 nM), or papain (236 pM) was added to a solution of 100 mM NaCl, 50 mM HEPES, pH 7.6, 1 mM TCEP, 30 μM Suc-LLVY-AMC (SEQ ID NO: 8) substrate, and inhibitor (0.5 to 50 μM). Calpain reactions also contained CaCl2 (1 mM and 100 mM for porcine and rat respectively). Both substrate and inhibitors were dissolved in acetonitrile/DMSO (1:1) with the exception of E-64, dissolved in water. Organic solvent remained <2% in all reactions, and most often <1%. Reactions were carried out in microtiter 96-well plates, with 150 μL per well, 30° C., and product formation was monitored over time by fluorescence (Ex/Em 346/444 nm, with 420 nm cutoff filter). Kinetic values of kobs were determined via non-linear regression using one-phase association analysis and linear plots of 1/kobs vs. 1/[I] provided kinetic constants ki and KI.

[4] = molecular target: Full length porcine calpain (Sus scrofa (Pig), UniProt P35750); assay: Calpain inhibition kinetics studies (Suc-LLVY-AMC substrate); format: biochemical; settings: for Ki: apparent equilibrium constant, read-out: K1 Calpain1; for Ki / ki Calpain1: full length Cal1; for ki Calpain1: inhibition rate; for rel Calpain1: ki/Ki calculated relative to E-64
Excerpt: as §1, §2

[5] = molecular target: Cal1cat (Rattus norvegicus (Rat), UniProt P97571); assay: LC-MS/MS examination of inhibitor modified Cal1cat active site; format: binding; settings: for modification of the active site cysteine of Cal1cat: Cal1cat 1 μM, varying inhibitor concentration
Method: (FIG. 3A) After capping of free cysteines with iodoacetamide (IAA) and in gel digest, peptide fragments were analyzed by LC-MS/MS. (FIG. 3B) Total ion chromatograms (TIC) for the incubation of recombinant Cal1cat (5 μM) in the absence or presence of inhibitors (10 μM). A non-active site and IAA-capped peptide fragment (Rt=41.3 min) was used as an internal standard for EIC quantitation. (FIG. 3C) Active site Cys modification of Cal1cat was concentration dependent in incubation containing Cal1cat (1 μM) and vary concentrations of inhibitors.
Inhibition kinetics and x-ray crystallography support a mechanism of calpain inhibition by E-64, resulting from covalent modification of the active site Cys (Suzuki, K. et al., FEBS Letters 1983, 152, 67-70; herein incorporated by reference in its entirety). LC-MS/MS was used to support a similar mechanism for 24a. The experimental methodology is outlined in FIG. 3A. Cal1cat (5 μM) was incubated with the appropriate inhibitor (10 μM) for 30 min. The mixture was quenched with EDTA (10 μM), and run on a SDS PAGE gel. Band excision, in-gel capping office cysteines with iodoacetamide (IAA, […]), tryptic digest, and subsequent LC-MS/MS analysis afforded the chromatograms shown in FIG. 3B. […] A peptide fragment containing an IAA labeled non-active site cysteine was used as an internal standard for semi-quantitative EIC analysis of the degree of active site modification observed (FIG. 3B). It is noteworthy that although Cal1cat was employed in these studies, analysis of full length Cal1 gave an identical active site peptide fragment (TIC of control digest from Cal1cat and full length Cal1 are compared in Example 10).
The reaction was quenched with EDTA (10 μM) and reaction mixture ran on a SDS PAGE gel. The Cal1cat containing band was cut from the gel and submitted to in-gel alkylation with IAA (100 mM) for 60 min, followed by trypsin digestion. LC-MS/MS was carried out on an Agilent 6300 Ion-Trap LC/MS. […] The resulting TIC and EIC were analyzed for anticipated m/z modified peptide fragments.

[6] = test system: Aβ40 and Aβ42; assay: Effect on Aβ levels in APP/PS1 mice; format: in vivo; settings: compound-treated vs vehicle-treated APP/PS1 transgenics
Excerpt: Increase of brain and plasma levels of Aβ and appearance of amyloid plaques is an important feature of AD.

[7] = test system: APP/PS1 mice; assay: LTP in APP/PS1 mice after daily treatment; format: in vivo; settings: daily treatment from 2 until 3 months
Method: P<0.05 in transgenics treated with compound compared to their respective vehicle-treated transgenics.
(§3) The ability of a prodrug to rescue the defects in associative and reference memory in 3 month old APP/PS1 animals was assessed. […] Thus, the esterification seems to improve PK but it spoils PD parameters. Compound 89 ameliorates both LTP and memory in 3 month old APP/PS1 mice (FIG. 15). Daily treatment with 89 from the age of 2 months until 3 months ameliorated the defect in LTP (A) contextual fear memory (B) and reference memory (C) in APP/PS1 mice. n=10 for all groups. P<0.05 in transgenics treated with compound compared to their respective vehicle-treated transgenics.

[8] = test system: APP/PS1 mice; assay: Behavioral rescue assays (contextual fear memory, 2-day RAWM reference memory); format: in vivo; settings: 3 month old APP/PS1 mice
Excerpt: APP/PS1-vehicle: n=15; APP/PS1-67: n=6; APP/PS1-30a: n=10; WT-vehicle: n=15; WT-67=5; WT-30a: n=8, APP/PS1-33: n=11; WT-33: n=8, APP/PS1-50: n=10; WT-50: n=8. P<0.05 in all transgenic groups treated with compound compared to their respective vehicle-treated transgenics.
APP/PS1-vehicle: n=17; APP/PS1-67: n=9; APP/PS1-30a: n=10; WT-vehicle: n=18; WT-67=9; WT-30a: n=9, APP/PS1-33: n=10; WT-33: n=9, APP/PS1-50: n=11; WT-50: n=9.
The ability of compounds to rescue the defects in associative and reference memory in 3 month old APP/PS1 animals was assessed. Capability of ameliorating the defects in contextual fear memory was tested via i.p. administration (FIG. 12). In the 2-day RAWM test, daily injections of the 67, 30a, 33 and 50 from the 2nd month of age were beneficial against the loss of contextual fear memory and reference memory.
Impact of chronic treatment on against memory loss in older APP/PS1 mice (7 months of age) with a more severe plaque load was also investigated. Compounds 67, 33 and 50 were beneficial against memory impairment following chronic administration (FIG. 13).
as §3

[9] = test system: Aβ-induced LTP impairment; assay: LTP rescue test; settings: LTP rescue, benchmark
Method: Residual levels of potentiation were averaged during the last 5 min of LTP.

[10] = molecular target: T1, full-length human Cal1 (Homo sapiens (Human), UniProt P07384); assay: Calpain inhibition FRET assay; format: biochemical; settings: Table 2; approximate IC50; read-out: Cal I IC50
[11] = molecular target: T1, full-length human Cal1; assay: Calpain inhibition FRET assay; format: biochemical; settings: Table 3, 20 min incubation, FRET substrate
[12] = test system: Cal I; assay: Relative selectivity for Cal I (E64 = 1.0), Table 2; format: biochemical; settings: relative to E64 = 1.0
[13] = test system: primary neurons; assay: LD50 in primary neurons; format: cell-based; settings: YES = LD50 ≧ 50 μM in primary neurons
[14] = mean ± S.D. of triplicate experiments

T1 sequence (P07384 whole entry): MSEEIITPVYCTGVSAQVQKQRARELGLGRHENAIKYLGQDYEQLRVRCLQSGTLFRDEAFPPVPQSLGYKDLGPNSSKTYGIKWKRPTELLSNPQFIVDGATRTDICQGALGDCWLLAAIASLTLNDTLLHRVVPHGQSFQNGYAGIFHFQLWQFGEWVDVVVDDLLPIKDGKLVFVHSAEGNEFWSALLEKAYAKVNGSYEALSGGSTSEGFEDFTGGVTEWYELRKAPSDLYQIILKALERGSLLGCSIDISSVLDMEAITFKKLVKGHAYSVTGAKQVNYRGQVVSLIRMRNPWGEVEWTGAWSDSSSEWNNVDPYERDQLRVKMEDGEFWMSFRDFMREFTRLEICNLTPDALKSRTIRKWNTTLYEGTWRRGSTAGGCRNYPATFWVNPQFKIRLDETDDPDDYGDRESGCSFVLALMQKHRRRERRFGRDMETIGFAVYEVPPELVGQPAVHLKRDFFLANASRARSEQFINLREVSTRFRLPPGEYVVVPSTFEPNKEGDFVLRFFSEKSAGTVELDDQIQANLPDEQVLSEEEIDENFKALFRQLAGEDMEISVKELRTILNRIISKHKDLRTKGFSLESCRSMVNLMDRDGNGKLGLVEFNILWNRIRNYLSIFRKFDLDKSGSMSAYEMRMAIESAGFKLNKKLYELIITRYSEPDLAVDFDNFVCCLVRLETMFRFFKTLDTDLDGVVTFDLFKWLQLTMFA
T1 sequence (P04632 whole entry partner): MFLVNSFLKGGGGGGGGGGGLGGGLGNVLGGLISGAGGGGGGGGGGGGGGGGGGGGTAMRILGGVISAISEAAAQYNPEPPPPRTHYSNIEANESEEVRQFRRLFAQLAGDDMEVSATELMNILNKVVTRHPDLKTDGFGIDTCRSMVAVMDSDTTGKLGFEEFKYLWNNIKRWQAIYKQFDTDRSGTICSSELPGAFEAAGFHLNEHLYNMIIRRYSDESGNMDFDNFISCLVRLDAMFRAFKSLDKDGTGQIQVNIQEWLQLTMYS
Chain of Full length porcine calpain (P35750 whole entry): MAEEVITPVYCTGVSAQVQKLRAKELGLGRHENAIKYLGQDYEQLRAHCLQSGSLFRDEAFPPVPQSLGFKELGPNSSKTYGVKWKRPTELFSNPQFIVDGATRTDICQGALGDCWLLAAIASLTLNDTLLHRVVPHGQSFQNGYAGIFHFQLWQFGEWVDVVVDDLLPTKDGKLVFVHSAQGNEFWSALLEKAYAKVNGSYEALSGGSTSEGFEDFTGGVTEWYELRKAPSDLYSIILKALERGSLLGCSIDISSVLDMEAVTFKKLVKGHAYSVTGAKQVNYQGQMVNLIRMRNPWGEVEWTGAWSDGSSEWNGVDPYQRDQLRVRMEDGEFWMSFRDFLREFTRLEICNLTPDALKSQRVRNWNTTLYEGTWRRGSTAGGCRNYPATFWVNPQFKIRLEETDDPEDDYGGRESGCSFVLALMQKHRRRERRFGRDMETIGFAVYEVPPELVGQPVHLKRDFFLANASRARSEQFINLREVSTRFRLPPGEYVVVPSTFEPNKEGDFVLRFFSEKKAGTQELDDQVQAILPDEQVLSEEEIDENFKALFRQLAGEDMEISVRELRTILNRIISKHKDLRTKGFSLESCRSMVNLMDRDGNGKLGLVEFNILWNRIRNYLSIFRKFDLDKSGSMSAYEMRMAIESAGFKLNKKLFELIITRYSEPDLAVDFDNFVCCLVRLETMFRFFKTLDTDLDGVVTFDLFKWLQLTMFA
Chain of Full length porcine calpain (P04574 whole entry partner): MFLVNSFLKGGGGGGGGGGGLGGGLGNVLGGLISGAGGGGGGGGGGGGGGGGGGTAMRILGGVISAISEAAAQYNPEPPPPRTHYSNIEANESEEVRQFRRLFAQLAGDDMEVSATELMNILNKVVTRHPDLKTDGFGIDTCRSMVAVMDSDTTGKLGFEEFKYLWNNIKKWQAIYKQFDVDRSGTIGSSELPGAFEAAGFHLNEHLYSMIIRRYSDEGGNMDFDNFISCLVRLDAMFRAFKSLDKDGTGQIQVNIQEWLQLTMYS
Chain of Cal1cat (P97571 other isoform, or with tags, fused parts or gaps): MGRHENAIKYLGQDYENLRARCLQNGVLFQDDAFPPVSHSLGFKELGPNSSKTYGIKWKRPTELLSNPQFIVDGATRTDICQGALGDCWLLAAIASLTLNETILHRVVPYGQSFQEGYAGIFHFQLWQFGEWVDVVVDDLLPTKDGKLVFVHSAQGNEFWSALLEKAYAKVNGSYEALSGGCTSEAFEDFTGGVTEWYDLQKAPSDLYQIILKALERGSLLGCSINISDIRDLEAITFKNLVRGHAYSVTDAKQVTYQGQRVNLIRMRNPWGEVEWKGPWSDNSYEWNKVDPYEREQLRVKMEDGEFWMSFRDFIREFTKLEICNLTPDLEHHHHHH
Chain of papain (P00784 134-345): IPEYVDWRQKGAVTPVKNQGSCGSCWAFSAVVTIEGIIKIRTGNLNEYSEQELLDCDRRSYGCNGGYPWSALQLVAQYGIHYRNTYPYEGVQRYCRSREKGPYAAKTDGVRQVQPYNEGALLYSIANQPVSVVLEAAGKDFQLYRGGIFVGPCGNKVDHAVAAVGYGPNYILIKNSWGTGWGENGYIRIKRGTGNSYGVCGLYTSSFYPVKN

Row | SMILES | Aβ levels and plaque load [1] | blocking of active site modification by probe 27 (western blot signal) [2] | ki Papain [3] [s⁻¹] | rel Papain [3] | Ki [4] [nM] | ki Calpain1 [4] [s⁻¹] | rel Calpain1 [4] | modification of the active site cysteine of Cal1cat [5] | IC50 [10] [nM] | IC50 [11] [nM] | Relative selectivity for Cal I E64 = 1.0 [12] | LD50 ≧ 50 μM primary neurons [13] | further results
1 | CC(C)C[C@H](NS(=O)(=O)c1ccccc1)C(=O)N[C@@H](C(C)C)[C@@H](O)c1c(-c2ccccc2)c1=O [BDA-410] | do not have any effect | – | – | – | – | – | – | – | – | – | – | – | –
2 | CC(C)C[C@H](NC(=O)[C@H]1O[C@@H]1C(=O)O)C(=O)Nc1nc(-c2ccc(F)cc2)cs1 [Compound 24a, (2S,3S)-3-((S)-1-(4-(4-fluorophenyl)thiazol-2-ylamino)-4-methyl-1-oxopentan-2-ylcarbamoyl)oxirane-2-carboxylic acid] | – | substantially reduced signals from both enzymes | 17.1 | 1.9 | 6000 | 0.16 | 0.91 | concentration dependent modification | – | – | – | – | Ki ([3]; apparent equilibrium constant, read-out: K1 Papain): 1600 nM; active site modification on co-incubation of E-64 and 24a (EIC peak areas) ([5]; Cal1cat with E-64 and 24a, both 1 μM): greater modification
3 | CCOC(=O)[C@@H]1O[C@H]1C(=O)N[C@@H](Cc1cscn1)C(=O)Nc1nc(-c2ccc(F)cc2)cs1 [Compound 89] | – | – | – | – | – | – | – | – | – | – | – | – | Aβ40 and Aβ42 levels in hippocampi [6]: no difference was detected; defect in LTP [7]: ameliorated; reference memory ([8]; 2-day RAWM, daily from 2 months): ameliorated; contextual fear memory ([8]; daily i.p. from 2 months): ameliorated
4 | CC(C)C[C@H](NC(=O)C1O[C@@H]1C(=O)O)C(=O)NCCCCNC(=N)N (stereo partly drawn) [Compound E64, L-trans-epoxysuccinyl-leucylamido(4-guanidino)butane, reference compound] | do not have any effect | substantial loss of signal | 28.6 | 1 | 4000 | 0.12 | 1 | concentration dependent modification | 100 | 100 | 1.0 | YES | selectivity for Cal1cat (ratio of Cal1cat versus CathB band intensities) ([2]; ratio for probe 27 alone set as 1.0, inhibitor 5 μM): 1.5; Ki [3]: 5100 nM; 10^−5 × ki/Ki Papain [3, 14]: 56.3 ± 5.2; ED50 [9]: 650 nM; Relative Selectivity ([4]; Cal1 over papain, ki/Ki relative to E-64 set at 1.0): 1; 10^−4 × ki/Ki Calpain1 [4, 14]: 3.02 ± 0.15
5 | CC(C)C[C@H](NC(=O)[C@H]1O[C@@H]1C(=O)O)C(=O)NCCCCNS(=O)(=O)c1ccc(F)cc1 [Compound 25, (2S,3S)-3-((S)-1-(4-(4-fluorophenylsulfonamido)butylamino)-4-methyl-1-oxopentan-2-ylcarbamoyl)oxirane-2-carboxylic acid] | – | – | – | – | – | – | – | – | 100 | 150 | 0.9 | YES | –
6 | CC(C)C[C@H](NC(=O)[C@H]1O[C@@H]1C(=O)O)C(=O)NCCCCNC(=O)CCCCC1CCSS1 (stereo partly drawn) [Compound 26, (2S,3S)-3-((2S)-1-(4-(5-(1,2-dithiolan-3-yl)pentanamido)butylamino)-4-methyl-1-oxopentan-2-ylcarbamoyl)oxirane-2-carboxylic acid] | – | – | – | – | – | – | – | – | 150 | 100 | 1.6 | YES | –
